Measured values: paper PMC6342556 (ACS chemical neuroscience, 2018)

Biological target: serotonin transporter (hSERT) (Homo sapiens, UniProt P31645)
Test: fluorometric uptake
Assay type: cell-based

Chain of serotonin transporter (hSERT) (P31645 whole entry): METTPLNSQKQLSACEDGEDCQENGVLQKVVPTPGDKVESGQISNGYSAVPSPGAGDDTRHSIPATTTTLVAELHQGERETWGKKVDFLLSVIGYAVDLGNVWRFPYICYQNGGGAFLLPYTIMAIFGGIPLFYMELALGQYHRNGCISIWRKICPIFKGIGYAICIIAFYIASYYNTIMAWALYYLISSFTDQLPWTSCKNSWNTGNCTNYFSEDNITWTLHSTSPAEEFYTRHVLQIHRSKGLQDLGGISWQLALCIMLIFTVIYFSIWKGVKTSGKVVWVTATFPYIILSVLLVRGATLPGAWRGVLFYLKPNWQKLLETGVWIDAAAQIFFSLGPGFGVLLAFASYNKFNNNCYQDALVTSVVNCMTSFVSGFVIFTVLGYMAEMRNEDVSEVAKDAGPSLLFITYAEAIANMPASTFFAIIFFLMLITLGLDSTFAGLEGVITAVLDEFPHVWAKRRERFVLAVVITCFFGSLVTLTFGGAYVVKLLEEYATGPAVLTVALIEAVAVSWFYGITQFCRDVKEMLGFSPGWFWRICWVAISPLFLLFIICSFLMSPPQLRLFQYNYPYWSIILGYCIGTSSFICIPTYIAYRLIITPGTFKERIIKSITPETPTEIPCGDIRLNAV

NCCc1ccc2[nH]c3ccccc3c(=O)c2c1 [FFN54]
fluorometric uptake (5 μM) in hSERT-HEK cells with and without imipramine; S/B =: FFN54 showed hSERT-dependent cell uptake in a multi-well fluorometric assay using hSERT-transfected human kidney cells
